Measurements from patent publication US20220332802A1, “METHODS AND COMPOSITIONS FOR TREATMENT OF NEURODEGENERATION” (Children's Hospital Medical Center, priority 2019, published 2022).

Legend:
GCase [1] = target: T1, GCase (Mus musculus, UniProt P17439)
T1 sequence (P17439 20-515): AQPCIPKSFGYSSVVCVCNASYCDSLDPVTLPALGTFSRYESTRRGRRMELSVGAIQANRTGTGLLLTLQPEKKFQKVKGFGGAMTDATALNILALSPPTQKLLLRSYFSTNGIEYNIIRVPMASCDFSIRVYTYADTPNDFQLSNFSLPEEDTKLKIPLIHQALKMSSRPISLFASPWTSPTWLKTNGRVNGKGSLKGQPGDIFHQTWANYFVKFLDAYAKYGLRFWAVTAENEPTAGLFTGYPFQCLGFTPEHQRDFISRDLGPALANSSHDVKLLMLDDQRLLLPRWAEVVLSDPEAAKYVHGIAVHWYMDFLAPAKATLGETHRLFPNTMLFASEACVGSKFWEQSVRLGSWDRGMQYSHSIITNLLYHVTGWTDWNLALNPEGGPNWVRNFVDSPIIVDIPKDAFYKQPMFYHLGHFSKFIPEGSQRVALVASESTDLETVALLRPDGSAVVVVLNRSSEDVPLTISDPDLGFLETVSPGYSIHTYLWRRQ

GCase [2] = target: T1, GCase; parameters: from tissue; brain examined; conditions: i.p. 50 mg/kg/day for 4 weeks; cited from earlier work
[3] = target: T2, glucocerebrosidase (GCase) (Mus musculus, UniProt P17439); test: Targeting of GCase with CBE in WT and C5aR1-/- mice, 60-day observation; assay type: in vivo; conditions: CBE-injected WT mice
T2 construct: from tissue; brain examined
T2 sequence (P17439 20-515): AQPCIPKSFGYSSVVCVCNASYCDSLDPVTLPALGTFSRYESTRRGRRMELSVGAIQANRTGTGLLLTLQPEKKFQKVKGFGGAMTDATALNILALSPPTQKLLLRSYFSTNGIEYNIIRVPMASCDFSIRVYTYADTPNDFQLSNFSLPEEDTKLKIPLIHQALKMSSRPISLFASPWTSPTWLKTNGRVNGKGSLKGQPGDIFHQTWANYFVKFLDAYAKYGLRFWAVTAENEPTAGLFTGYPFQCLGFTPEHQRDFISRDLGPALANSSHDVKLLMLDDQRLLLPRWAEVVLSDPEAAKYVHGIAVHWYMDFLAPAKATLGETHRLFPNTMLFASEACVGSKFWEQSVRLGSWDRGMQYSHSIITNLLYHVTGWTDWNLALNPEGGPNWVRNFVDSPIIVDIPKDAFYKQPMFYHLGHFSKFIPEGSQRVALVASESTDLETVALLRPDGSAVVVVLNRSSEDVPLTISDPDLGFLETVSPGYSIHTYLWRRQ
Description: 9V/null mice suffered from massive accumulation of GC in the brain and loss of neurons. Applicant targeted glucocerebrosidase (GCase) with conduritol B epoxide (CBE) in WT and C5aR1^−/− mice. Strikingly, CBE-injected WT mice died within 30 days.

C5aR1 = target: T3, C5aR1 (Homo sapiens, UniProt P21730); conditions: cited from earlier work
T3 sequence (P21730 1-350): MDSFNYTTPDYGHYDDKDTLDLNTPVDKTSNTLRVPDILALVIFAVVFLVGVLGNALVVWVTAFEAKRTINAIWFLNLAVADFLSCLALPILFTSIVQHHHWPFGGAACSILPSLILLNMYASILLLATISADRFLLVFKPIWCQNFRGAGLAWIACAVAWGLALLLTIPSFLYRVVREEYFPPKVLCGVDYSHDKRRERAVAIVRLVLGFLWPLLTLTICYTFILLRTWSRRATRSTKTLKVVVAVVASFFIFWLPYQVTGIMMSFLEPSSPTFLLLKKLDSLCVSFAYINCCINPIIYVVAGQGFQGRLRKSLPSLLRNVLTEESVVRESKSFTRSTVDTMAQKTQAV

[4] = test system: experimental Gaucher disease; conditions: cited from earlier work

O[C@H]1[C@H](O)[C@@H](O)[C@@H]2O[C@@H]2[C@@H]1O (racemic) [CBE, conduritol B epoxide]
motor, memory and reactivity behaviour (GCase [1]; CBE-GCase targeted WT or C5aR1-/- mice, FIG. 8): no motor or memory defects but are hyper-reactive
brain glucosylceramide (GCase [1]; brain of CBE-GCase targeted PD mouse model, FIG. 1): increased glucosylceramide
brain C5a and C5aR1 (GCase [1]; brains of CBE-GCase targeted PD mouse model, FIG. 2): increased C5a and C5aR1
brain pro-inflammatory cytokines (GCase [1]; brains of CBE-GCase targeted PD mouse model, FIG. 3): increased pro-inflammatory cytokines
reduction of GCase activity (GCase [2]): 25-50%
time to death [3]: ≤ 30 days

Cyclo[N2-(1-Oxo-3-phenylpropyl)-Orn-Pro-D-Cha-Trp-Arg] [PMX 205]
concentration at which the peptide specifically targets C5aR1 (C5aR1): nanomolar concentrations
manner of action at C5aR1 (C5aR1): pseudo-irreversible and insurmountable

B1: C5a-(1-66, Cys27Ala)-A8B-Del.71-73) (protein)
chain: TLQKKIEEIAAKYKHSVVKKCCYDGAAVNNDETCEQRAARISLGPRCIKAFTECCVVASQLRANISFKRS
modifications: (C5a-(1-66,Cys27Ala)-A8B-Del 71-73)
notes: mutein of human C5a that targets C5aR1 and C5aR2 simultaneously
survival and disease signs [4]: increase survival and reverse disease signs
